Reference: patent US8460925B2, “Methods for culturing mammalian taste cells” (priority 2004, dated 2013)

Assays:
[1] = system: cultured taste cells; experiment: Response of cultured taste cells to taste stimuli by Ca-imaging (fura-2); assay type: cell-based, rat; conditions: elevation of intracellular calcium
Protocol: Taste cells employed are isolated as described in Example 1 and cultured for 1 week or 2 months on rat tail collagen type 1-coated coverslips.
(§1) Ca-imaging is performed as follows. The coverslips are incubated for 15-30 minutes with calcium sensitive dye in Modified MHNK ringer's solution (80 mM NaCl, 5 mM KCl, 1 mM MgCl2, 1 mM CaCl2, 1 mM Na-pyruvate, and 20 mM Hepes-Na, pH 7.2 with osmolarity adjusted to 300-310 by 5M NaCl) supplemented with […] (Molecular Probes Inc., Eugene, Oreg.) and 20 mg/ml PLURONIC® F127 (Molecular Probes Inc.). The calcium sensitive dye fura-2 AM is cleaved to fura-2 which is fluorescent and can be detected.
After incubation, coverslips are placed in a recording chamber and continuously bathed with Modified MHNK Ringer's solution that is applied as superfusion.
The stimuli (Denatonium benzoate 2 mM and 0.5 mM, Acesulfame K 250 ppm, Monosodium glutamate (MSG) 3 mM, Cycloheximide 25 μM, Glycine 125 mM, and High K buffer (modified Modified MHNK ringer's solution with 5 mM NaCl, 80 mM KCl, 1 mM MgCl2, 1 mM CaCl2, 1 mM Na-pyruvate, and 20 mM Hepes-Na, pH 7.2 with osmolarity adjusted to 300-310 by 5M NaCl) are applied to the coverslip by switching the superfusion to the stimulus solution, which allows for a complete change of bath solutions in the chamber within 10 seconds.
Calcium imaging recordings are performed using standard imaging techniques as described by Restrepo D., M. Zviman and N. E. Rawson, “The measurement of intracellular calcium in chemosensory cells”, in: Methods in Chemosensory Research, Ed. by A. Spielman and J. Brand. CRC Press, 1995. […] Emitted light from fura-2 in the cells under 200× magnification is filtered at 510 nm and recorded with a cooled CCD camera (Olympix, Perkin Elmer Life Sciences, Bethesda Md.). The excitation wavelength is 340-380 nm and the emission wavelength is 510 nm using a wide band filter. Images are digitalized using a Merlin Imaging Workstation (Perkin Elmer Life Sciences, Bethesda Md.), which controls illuminator, camera, and acquisition, and performs the image ratioing and the display of pseudocolor images.
Stimuli are diluted in Modified MHNK ringer's solution and applied via a gravity-flow superfusion apparatus for about 10-60 seconds, depending on the stimulus. […] Typically several cells are tested.

[2] = molecular target: T1, mouse T2R5 (Mus musculus, UniProt Q9JKT4); experiment: Calcium imaging of cultured taste cells transfected with mT2R5; assay type: cell-based
T1 construct: sst (N-terminal export tag; by own knowledge of Bufe et al. 2002, the first 45 residues of rat somatostatin receptor type 3) (N); expressed in transfected cells; host or cells: primary cultured rat taste cells on rat tail collagen-1-coated coverslips
T1 sequence (Q9JKT4 1-300): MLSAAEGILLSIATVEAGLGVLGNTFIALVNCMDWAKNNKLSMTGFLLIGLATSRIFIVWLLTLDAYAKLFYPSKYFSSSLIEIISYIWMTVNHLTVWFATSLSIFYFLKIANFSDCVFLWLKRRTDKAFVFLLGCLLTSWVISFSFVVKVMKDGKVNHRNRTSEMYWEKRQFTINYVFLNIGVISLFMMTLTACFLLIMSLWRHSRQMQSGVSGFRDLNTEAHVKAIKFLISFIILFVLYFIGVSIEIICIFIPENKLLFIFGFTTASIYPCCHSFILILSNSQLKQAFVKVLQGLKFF
Protocol: as §1
(§2) Calcium imaging recordings are performed using standard imaging techniques as described by Restrepo D., M. Zviman and N. E. Rawson, “The measurement of intracellular calcium in chemosensory cells”, in: Methods in Chemosensory Research, Ed. by A. Spielman and J. Brand. CRC Press, 1995. Illumination is provided by a LSR SPECTRAMASTER monochromator coupled to the microscope. Emitted light from fura-2 in the cells under 200× magnification is filtered at 510 nm and recorded with a cooled CCD camera (Olympix, Perkin Elmer Life Sciences, Bethesda Md.). The excitation wavelength is 340-380 nm and the emission wavelength is 510 nm using a wide band filter. Images are digitalized using a Merlin Imaging Workstation (Perkin Elmer Life Sciences, Bethesda Md.), which controls illuminator, camera, and acquisition, and performs the image ratioing and the display of pseudocolor images. […]

[3] = molecular target: T2, human T2R16 (Homo sapiens, UniProt Q9NYV7); experiment: Calcium imaging of cultured taste cells transfected with hT2R16; assay type: cell-based
T2 construct: expressed in transfected cells; host or cells: primary cultured rat taste cells on rat tail collagen-1-coated coverslips
T2 sequence (Q9NYV7 1-291): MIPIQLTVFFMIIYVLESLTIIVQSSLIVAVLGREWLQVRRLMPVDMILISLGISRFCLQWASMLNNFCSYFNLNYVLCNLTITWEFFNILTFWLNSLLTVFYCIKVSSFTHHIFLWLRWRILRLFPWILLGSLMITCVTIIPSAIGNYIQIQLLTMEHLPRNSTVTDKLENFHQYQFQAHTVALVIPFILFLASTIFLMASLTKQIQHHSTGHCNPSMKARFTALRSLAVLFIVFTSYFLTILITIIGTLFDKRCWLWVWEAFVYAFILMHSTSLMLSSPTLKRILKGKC
Protocol: as §1, §2

SMILES	activation of cultured taste cells by taste stimulants as shown by calcium imaging [1]	effective concentration for increase in intracellular calcium [2]	effective concentration for increase in intracellular calcium [3]
CC[N+](CC)(CC(=O)Nc1c(C)cccc1C)Cc1ccccc1 [Denatonium, Denatonium benzoate]	activated	–	–
CC1CC(C)C(=O)C(C(O)CC2CC(=O)NC(=O)C2)C1 (stereo not shown) [Cycloheximide, 3-[2-(3,5-Dimethyl-2-oxocyclohexyl)-2-hydroxyethyl]glutarimide]	activated	1 µM	–
OC[C@H]1O[C@@H](Oc2ccccc2)[C@H](O)[C@@H](O)[C@@H]1O [phenyl-beta-D-glucopyranoside]	–	–	1 milliM
NCC(=O)O [Glycine]	activated	–	–
N[C@@H](CCC(=O)O)C(=O)[O-].[Na+] [MSG, Monosodium glutamate]	activated	–	–
CC1=CC(=O)NS(=O)(=O)O1.[K] [Acesulfame K, 6-Methyl-1,2,3-oxathiazin-4(3H)-one 2,2-dioxide potassium salt]	activated	–	–
